Experimental data reported in article PMC13500670, “The U1 snRNP protein U1C and Helix H of U1 snRNA are critical for small molecule splicing modulator function” (Nature Communications, 2026).

Key:
[1] = test system: full length U1 snRNA + HTT 5' ss oligo with -1A deleted; assay: FP: full-length U1 snRNA + HTT 5' ss oligo with -1A deleted (Supplementary Fig. 5E); type: binding, human
Protocol: To ensure the presence of a −1A bulge in the RNA duplex, we extended the U1 snRNA to nucleotide 1–16 and generated an artificial HTT 5′ ss oligo that added 4 additional nucleotides upstream of the −4C nucleotide to ensure stable base pairing upstream of the potential −1A bulge.
All of 5′-FAM labeled RNA oligos used in this study were synthesized and purified by IDT (USA). Fluorescence polarization (FP) assays were performed in binding buffer (20 mM HEPES pH 7.5, 1 mM MgCl2, 200 mM KCl, 0.01% TritonX-100, 0.1%PEG3350, 2%DMSO) at room temperature using a Envision HTS Plate Reader system (Revvity). […] The equilibrium dissociation constants (Kd) of binding reaction were calculated using the following single-site binding model formula in GraphPad Prism: y=START+(END−START)x/kD+x where x and y represent the concentration of U1 snRNP (or U1 snRNA) and the polarization value measured respectively, START represents the polarization value of protein-free nucleic acid probe, END represents the maximum polarization value when U1 snRNP (or U1 snRNA) binds to the fluorescently labeled 5′ ss oligo. […]

[2] = test system: cassette exon / GA/GU iExon inclusion, HEK293 cells, scr siRNA; assay: RNA-seq splicing analysis, compound dose response, scrambled (mock) siRNA; type: cell-based, human
Excerpt: Skipped exons are highly enriched for noncanonical 5′ ss sequences (on either the intronic or exonic side), which account for 90% of skipped exons (Supplementary Fig. 8C). For example, among skipped exons with a canonical exonic 5′ ss sequence, 74% contain noncanonical intron sequence. These observations are consistent with the previous published role for U1C stabilization of the U1 snRNA-pre-mRNA duplex at the 5′ ss[25]–[28]. […] We will refer to these as class I exons for clarity in later discussion.
We next examined the effect of U1C knockdown on compound-mediated splicing. […] We next used the complete dose response to calculate the effective concentration at which deltaPSIcompound-DMSO is 30 (EC-dPSI30).
HEK293T cells were grown in DMEM media with 10% FBS. 500,000 cells in 1.75 mL of media were plated into a 6-well plate for approximately 6 h. Either siRNA negative control (ThermoFisher Silencer^TM Negative control #2, AM4613) or U1C siRNA (ThermoFisher Silencer^TM Select Pre-designed siRNA, S13225) were transfected for a final concentration of 25 nM using Invitrogen Lipofectamine RNAiMax (13778-150). In brief, 10 μL 5 μM siRNA was added to 115 μL of OptiMEM, while 5 μL Lipofectamine added to 120 μL OptiMEM for 5 minu before mixing the solutions and incubating for 20 min. 250 μL of Lipofectamine:siRNA solution was gentle added to the 1.75 mL cells. After 24 h post-transfection, cells were treated with 10 μL compound resuspended in DMSO. […] Each compound-treated experimental condition was treated and collected in duplicate, while four DMSO only treated samples per siRNA transfection were collected. RNA was isolated using KingFisher^TM Apex instrument and the MagMAX™ mirVana™ Total RNA Isolation Kit (A27828) by Thermo Fisher according to manufacturer’s protocol. Isolated RNA was submitted to Admera Health for library preparation (polyA selected, stranded) and mRNA-sequencing and >20 M 150 bp pair-end reads were returned.
RNAseq and splicing analysis were described earlier using DEDseq (https:// github.com/liwc01/DEDSeq[18]) with minor modifications. RNA sequencing reads were mapped to human genome (hg19) using STAR (version 2.7.10b); only uniquely mapped reads (with MAPQ > 10) with <5 nt/100 nt mismatches and properly paired reads were used. For splicing analysis, all junction reads (read with a gap in alignment indicating splicing) were used, including the ones mapped to unannotated splice sites. Reads were counted for different exons (for cassette exon [CE]) or exonic regions (for A5′ss or A3′ss). For each splicing event, a percent-spliced-in (PSI) value was calculated using the percent of average read number supporting the inclusion among all reads supporting either the inclusion or the exclusion. A minimum of 10 for the denominator of PSI calculation was required. Otherwise, a “NA” value would be generated. PSI values for biological replicates were averaged, and the PSI difference between the two treatment groups was calculated. For a statistical test, a 2 × 2 read counts table was made for each event, with rows for reads supporting inclusion or exclusion, and columns for the two comparing sample groups. Fisher’s exact test was used for the statistical tests. For biological replicates, each pair of the testing and control sample was analyzed by Fisher’s exact test and the geometric mean of all P-values was reported as a final P-value. PSI change (deltaPSI) of >10% (or < −10%) and P < 0.001 was used to select splicing events being regulated by the treatment. PSI calculation, Fisher’s exact test were performed using R (4.0.5). 5′ ss composition analysis was performed as described in ref. [25]. Potency of splicing modulator was determined by plotting dPSI and identifying the concentration at which the change in PSI reached 30% and reported as EC_dPSI30.

[3] = test system: SMN2 exon 7 skipping, HEK293T cells; assay: SMN2 splicing minigene reporter assay (luciferase); type: cell-based; details: Homo sapiens, HEK-293T, Fig. 3A, 36 h, 0.012 to 9 µM
Protocol: Exon 7 inclusion places the GLuc gene out of frame, thereby reducing luciferase activity. […] Transfection was performed in 10 cm dishes using Lipofectamine 2000 (Thermo, #11668019) according to the manufacturer’s protocol. […] Compounds were dispensed in duplicate across a 1:3 serial dilution series ranging from 0.012 to 9 µM. Following a 36 h incubation at 37 °C, luciferase activity was assessed by adding 12 µL of a custom luciferase reagent to each well. The luciferase reagent (12 mL total volume) consisted of 60 µL 50× coelenterazine substrate (Nanolight, #320), 3 mL Nanolight GLuc buffer, 30 µL 10% Triton X-100 (Thermo, #A16046.AP), and 8.9 mL deionized water. Plates were shaken at 600 rpm for 6 min, and luminescence was measured using a Cytation 5 multimode plate reader (BioTek). Half-maximal effective concentration (EC50) values were calculated using GraphPad Prism (v10.4) with four-parameter nonlinear regression curve fitting.

[4] = test system: SMN2 pre-mRNA + native or reconstituted U1 snRNP; assay: Pull-down of native or reconstituted U1 snRNP by immobilized SMN2 pre-mRNA; type: binding, human; details: Fig. 1F; 50 μM Branaplam vs 0.5% DMSO
Excerpt: In this assay, we immobilized Minx (as a positive control with a canonical 5′ ss) or SMN2 pre-mRNA containing the weak 5′ ss of exon 7 on amylose resin, pulled down either native or reconstituted U1 snRNP, and analyzed the RNAs in the pulldown samples as a surrogate of the amount of U1 snRNP bound to the pre-mRNA.
The SMN2 pre-mRNA fragment used in pull down experiment contains 100 nt up and downstream of the 5′ ss of SMN2 intron 7 followed by three copies of MS2 tag. It was cloned downstream of a T7 promoter in the Sp72 vector. The SMN2 pre-mRNA was in vitro transcribed and purified by 7 M Urea denaturing gel.
The complex was then incubated with amylose resin and washed with the same buffer. The resins were treated in 5 μl buffer containing 1 mg/ml proteinase K at 37 °C for 30 min to release the RNAs. The resulting samples were run on 6% denaturing polyacrylamide gel and stained with Sybr Gold to visualize the RNAs.

CC1(C)CC(Oc2ccc(-c3ccc(-c4cn[nH]c4)cc3O)nn2)CC(C)(C)N1 [Branaplam, branaplam]
effect of compound on binding [1]: not improved
PSI of CMSS1 iExon ([2]; 5nM branaplam): 6
PSI of WNK4 iExon ([2]; 5nM branaplam): 6.7
PSI of PDXDC1 iExon ([2]; 5nM, mock, DMSO baseline […]): 2.9 PSI
geomean pEC_dPSI30 for all GA/GU iExons ([2]; Fig. 8C, mock knockdown, -log10 of compound concentration when dPSI achieves 30%): 6.61
number of exons with GA/GU 5' ss significantly induced with deltaPSI compound-DMSO >10 ([2]; highest concentration of branaplam): approximately 1200
saturation PSI of PDXDC1 iExon ([2]; highest dose, mock and U1C KD reach similar saturation): ~50
EC50 [3]: 59.6 nM
amount of native or reconstituted U1 snRNP pulled down by SMN2 pre-mRNA [4]: significantly increased
